Measurements as given in patent US20250171431A1, “HETEROCYCLIC INHIBITORS OF IGF-1R FOR TREATMENT OF DISEASE” (HORIZON THERAPEUTICS IRELAND DAC, priority 2023, published 2025).
pIC50: −log10 of the molar value.

Experiments:
IGF-1R [1] = biological target: T1, IGF-1R (Homo sapiens (Human), UniProt P08069); test: Example B-1: IGF-1R Assay (PC3 cells, IGF1 stimulation, AlphaLISA); assay type: cell-based; details: 200 ng/mL IGF1 stimulation, read-out: Biological Activity against IGF-1R IC50
Outline: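 Readout is AlphaLISA signal from lysed PC3 cells, expressed as % inhibition versus vehicle and EC80 controls and banded by IC50. Before lysis, the cells were starved of serum for 2 h, exposed to 3× serially diluted compound for 2 h, and stimulated for 30 min with 200 ng/mL IGF1 (final).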
Target sequence in this assay (P08069 31-1367): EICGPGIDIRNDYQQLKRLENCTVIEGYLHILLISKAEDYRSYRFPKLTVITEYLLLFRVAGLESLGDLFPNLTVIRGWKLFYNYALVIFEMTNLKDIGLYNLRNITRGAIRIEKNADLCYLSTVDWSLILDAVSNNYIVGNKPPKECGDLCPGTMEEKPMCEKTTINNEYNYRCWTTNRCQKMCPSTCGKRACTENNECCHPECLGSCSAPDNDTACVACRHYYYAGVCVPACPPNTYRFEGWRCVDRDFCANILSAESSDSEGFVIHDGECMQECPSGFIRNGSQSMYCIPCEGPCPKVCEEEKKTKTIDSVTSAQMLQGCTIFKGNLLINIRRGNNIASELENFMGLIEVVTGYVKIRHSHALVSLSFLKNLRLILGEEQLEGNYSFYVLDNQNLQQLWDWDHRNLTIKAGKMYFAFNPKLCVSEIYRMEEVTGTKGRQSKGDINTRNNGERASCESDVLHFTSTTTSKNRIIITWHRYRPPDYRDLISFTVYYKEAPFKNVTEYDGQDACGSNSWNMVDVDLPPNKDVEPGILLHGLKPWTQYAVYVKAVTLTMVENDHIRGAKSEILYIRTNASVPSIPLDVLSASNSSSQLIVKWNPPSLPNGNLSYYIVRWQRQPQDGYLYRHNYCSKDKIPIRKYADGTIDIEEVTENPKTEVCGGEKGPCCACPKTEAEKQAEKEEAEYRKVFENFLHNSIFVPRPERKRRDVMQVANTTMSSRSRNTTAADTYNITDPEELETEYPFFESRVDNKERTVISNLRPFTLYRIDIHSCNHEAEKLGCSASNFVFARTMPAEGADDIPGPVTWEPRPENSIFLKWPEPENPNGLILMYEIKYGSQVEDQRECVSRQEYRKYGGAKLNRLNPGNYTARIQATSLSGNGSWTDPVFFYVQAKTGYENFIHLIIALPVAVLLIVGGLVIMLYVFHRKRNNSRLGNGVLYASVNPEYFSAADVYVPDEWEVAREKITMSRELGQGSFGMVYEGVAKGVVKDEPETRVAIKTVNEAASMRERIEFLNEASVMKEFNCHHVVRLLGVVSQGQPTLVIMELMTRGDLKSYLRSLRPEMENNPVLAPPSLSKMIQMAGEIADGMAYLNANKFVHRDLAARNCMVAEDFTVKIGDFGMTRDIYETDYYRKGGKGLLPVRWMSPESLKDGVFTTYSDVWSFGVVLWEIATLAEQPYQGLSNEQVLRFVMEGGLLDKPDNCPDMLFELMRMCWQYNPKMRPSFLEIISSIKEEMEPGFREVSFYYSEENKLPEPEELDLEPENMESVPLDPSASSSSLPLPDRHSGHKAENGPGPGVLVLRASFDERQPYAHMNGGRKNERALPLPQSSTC

IGF-1R [2] = biological target: T1, IGF-1R; test: Example B-2: IGF-1R Assay (PathHunter cell lines, EC80 agonist challenge); assay type: cell-based; details: read-out: IC50 (Biological Activity against IGF-1R)
Protocol: PathHunter cell lines were expanded from freezer stocks according to standard procedures. Cells were seeded in a total volume of 20 μL into white walled, 384-well microplates and incubated for the appropriate time prior to testing.
Cells are pre-incubated with compound followed by EC80 agonist challenge as follows: • 1. Intermediate dilution of sample stocks was performed to generate 5× sample in assay buffer. • 2. 5 μL of 5× sample was added to cells and incubated at 37° C. for 60 minutes. Vehicle concentration was 1%. • 3. 5 μL of 6×EC80 agonist in assay buffer was added to the cells and incubated at room temperature for 3 hours.
Assay signal was generated through a single addition of 12.5 or 15 μL (50% v/v) of PathHunter Detection reagent cocktail for agonist and antagonist assays respectively, followed by a one hour incubation at room temperature. Microplates were read following signal generation with a PerkinElmer Envision™ instrument for chemilumine-scent signal detection.
Compound activity was analyzed using CBIS data analysis suite (ChemInnovation, CA). Percentage inhibition was calculated using the following formula: % Inhibition=100%×(1−(mean RLU of test sample−mean RLU of vehicle control)/(mean RLU of EC80 control−mean RLU of vehicle control)). The activity for representative examples of the invention is shown in the following table, wherein A: IC50≤500 nM; B: 500 nM<IC50≤2 μM; C: […]≤10 μM; D: IC50>[…].
Target sequence in this assay (P08069 31-1367, species assumed): as the sequence (P08069 31-1367) above

SMILES	pIC50 (IGF-1R [1])	pIC50 (IGF-1R [2])
CN(C)CC(=O)N1CCOc2cc(Nc3nccc(Nc4cnc5cc(F)c(F)cc5c4)n3)ccc21 [Compound 152, 1-(7-((4-((6,7-difluoroquinolin-3-yl)amino)pyrimidin-2-yl)amino)-2,3-dihydro-4H-benzo[b][1.4]oxazin-4-yl)-2-(dimethylamino)ethan-1-one]	≥ 6.30	≥ 6.30
COc1cc(Nc2nccc(Nc3cnc4c(c3)OCCO4)n2)ccc1O[C@H]1C[C@H](N(C)C)C1 [Compound 357, 4-(2,3-dihydro-1,4-dioxa-5-aza-7-naphthylamino)-2-{3-methoxy-4-[(1r,3r)-3-(dimethylamino)cyclobutoxy]phenylamino}pyrimidine]	≥ 6.30	≥ 6.30
COc1cc(Nc2nccc(Nc3cnc4c(Cl)cc(F)cc4c3)n2)ccc1O[C@H]1C[C@@H](N(C)C)C1 [Compound 116, 4-(8-chloro-6-fluoro-3-quinolylamino)-2-{3-methoxy-4-[(1s,3s)-3-(dimethylamino)cyclobutoxy]phenylamino}pyrimidine]	≥ 6.30	5.70 to 6.30
COc1cc(Nc2nccc(Nc3cnc4ccc(Cl)nc4c3)n2)ccc1O[C@H]1C[C@@H](N(C)C)C1 [Compound 10, 4-(6-chloro-1,5-diaza-3-naphthylamino)-2-{3-methoxy-4-[(1s,3s)-3-(dimethylamino)cyclobutoxy]phenylamino}pyrimidine]	≥ 6.30	5.70 to 6.30
CN(C)CC(=O)N1CCOc2ccc(Nc3nccc(Nc4cnc5cc(F)c(F)cc5c4)n3)cc21 [Compound 149, 1-(6-((4-((6,7-difluoroquinolin-3-yl)amino)pyrimidin-2-yl)amino)-2,3-dihydro-4H-benzo[b][1.4]oxazin-4-yl)-2-(dimethylamino)ethan-1-one]	≥ 6.30	≥ 6.30
COc1cc(Nc2nccc(Nc3cc4ccccc4nc3C(N)=O)n2)ccc1O[C@H]1C[C@@H](N(C)C)C1 [Compound 297, 3-(2-{3-methoxy-4-[(1s,3s)-3-(dimethylamino)cyclobutoxy]phenylamino}-4-pyrimidinylamino)-2-quinolinecarboxamide]	–	5.70 to 6.30
CN(C)CC1COc2cc(Nc3nccc(Nc4cnc5ccc(Cl)cc5c4)n3)cnc2O1 (centres unmarked) [Compound 177, 4-(6-chloro-3-quinolylamino)-2-{3-[(dimethylamino)methyl]-2,3-dihydro-1,4-dioxa-5-aza-7-naphthylamino}pyrimidine]	≥ 6.30	≥ 6.30
COc1cc(Nc2nccc(Nc3cnc4[nH]cc(C)c4c3)n2)ccc1O[C@H]1C[C@@H](N(C)C)C1 [Compound 281, 2-{3-methoxy-4-[(1s,3s)-3-(dimethylamino)cyclobutoxy]phenylamino}-4-(3-methyl-1H-1,7-diazainden-5-ylamino)pyrimidine]	≥ 6.30	–
COc1cc(Nc2nccc(Nc3ccc4scnc4c3)n2)ccc1OCCCN1CCCCC1 [Compound 443, 4-(1,3-benzothiazol-5-ylamino)-2-[3-methoxy-4-(3-piperidinopropoxy)phenylamino] pyrimidine]	≥ 6.30	–
COc1cc(Nc2nccc(Nc3cnc4ccc(Cl)cc4c3)n2)cnc1N1CCN(C)C(C)(C)C1 [Compound 480, 4-(6-chloro-3-quinolylamino)-2-[6-(3,3-dimethyl-4-methyl-1-piperazinyl)-5-methoxy-3-pyridylamino] pyrimidine]	≥ 6.30	–
COc1cc(Nc2nccc(Nc3cnc4cc(F)c(F)cc4c3)n2)cnc1N1C[C@H]2C[C@@H]1CO2 [Compound 127, 2-(6-{(1R,4R)-2-oxa-5-azabicyclo[2.2.1]hept-5-yl}-5-methoxy-3-pyridylamino)-4-(6,7-difluoro-3-quinolylamino)pyrimidine]	≥ 6.30	–
O=S1(=O)CCN([C@H]2CC[C@@H](Oc3ccc(Nc4nccc(Nc5cnc6ccccc6c5)n4)cc3)CC2)CC1 [Compound 38, 4-[(1s,4s)-4-{p-[4-(3-quinolylamino)-2-pyrimidinylamino]phenoxy}cyclohexyl]-126,4-thiazinane-1,1-dione]	≥ 6.30	–
COc1cc(Nc2nccc(Nc3ccc4cccnc4c3)n2)ccc1OCCCN1CCCCC1 [Compound 433, 2-[3-methoxy-4-(3-piperidinopropoxy)phenylamino]-4-(7-quinolylamino) pyrimidine]	5.70 to 6.30	–
COc1cc(Nc2nccc(Nc3cnc4c(Cl)cccc4c3)n2)ccc1O[C@H]1CC[C@@H](N2CCOCC2)CC1 [Compound 333, 4-(8-chloro-3-quinolylamino)-2-{3-methoxy-4-[(1s,4s)-4-morpholinocyclohexyloxy]phenylamino}pyrimidine]	≥ 6.30	–
COc1cc(Nc2nccc(Nc3cnc4[nH]ccc4c3)n2)ccc1OCCCN1CCCCC1 [Compound 381, 4-(1H-1,7-diazainden-5-ylamino)-2-[3-methoxy-4-(3-piperidinopropoxy)phenylamino]pyrimidine]	≥ 6.30	–
COc1cc(Nc2nccc(Nc3cnc4cc(F)c(F)cc4c3)n2)cnc1N1CCOC(C)(C)C1 [Compound 157, N4-(6,7-difluoroquinolin-3-yl)-N2-(6-(2,2-dimethylmorpholino)-5-methoxypyridin-3-yl)pyrimidine-2,4-diamine]	5.70 to 6.30	–
COc1cc(Nc2nccc(Nc3cnc4c(c3)CCOC4)n2)ccc1OCCCN1CCCCC1 [Compound 54, 4-(6,8-dihydro-5H-7-oxa-1-azanaphth-3-ylamino)-2-[3-methoxy-4-(3-piperidinopropoxy)phenylamino] pyrimidine]	≥ 6.30	–
COc1cc(Nc2nccc(Nc3cnc4c(F)c(F)ccc4c3)n2)ccc1O[C@H]1C[C@@H](N(C)C)C1 [Compound 298, 4-(7,8-difluoro-3-quinolylamino)-2-{3-methoxy-4-[(1s,3s)-3-(dimethylamino)cyclobutoxy]phenylamino}pyrimidine]	≥ 6.30	–
COc1cc(Nc2nccc(Nc3ccc4c(c3)CCCN4C)n2)ccc1OCCCN1CCCCC1 [Compound 451, 2-[3-methoxy-4-(3-piperidinopropoxy)phenylamino]-4-(1-methyl-1,2,3,4-tetrahydro-6-quinolylamino) pyrimidine]	≥ 6.30	–
C#Cc1ccc2ncc(Nc3ccnc(Nc4ccc(O[C@H]5C[C@@H](N(C)C)C5)c(OC)c4)n3)cc2c1 [Compound 302, 4-(6-ethynyl-3-quinolylamino)-2-{3-methoxy-4-[(1s,3s)-3-(dimethylamino)cyclobutoxy]phenylamino}pyrimidine]	≥ 6.30	–
COc1cc(Nc2nccc(Nc3cnc4ccc(Cl)cc4c3)n2)cnc1OC1CCNCC1(F)F (centres unmarked) [Compound 257, 4-(6-chloro-3-quinolylamino)-2-[6-(3,3-difluoro-4-piperidyloxy)-5-methoxy-3-pyridylamino]pyrimidine]	≥ 6.30	–
COc1cc(Nc2nccc(Nc3cnc4c(c3)CCC(C)C4)n2)ccc1OCCCN1CCCCC1 (centres unmarked) [Compound 69, 2-[3-methoxy-4-(3-piperidinopropoxy)phenylamino]-4-(7-methyl-5,6,7,8-tetrahydro-3-quinolylamino)pyrimidine]	≥ 6.30	–
COc1cc(Nc2nccc(Nc3cnc4cc(C)ccc4c3)n2)ccc1O[C@H]1C[C@H](N(C)C)C1 [Compound 336, 2-{3-methoxy-4-[(1r,3r)-3-(dimethylamino)cyclobutoxy]phenylamino}-4-(7-methyl-3-quinolylamino)pyrimidine]	≥ 6.30	–
